Columns and labels:
[1] = test system: Escherichia coli; test: Antimicrobial activity against Escherichia coli; format: functional
[2] = Lipophilicity, log P of the compound; format: physicochemical; settings: octanol/water
[3] = test system: Mollusca; test: Increase in mollusk membrane potential assessed as concentration required to raise 20 mV; format: functional, cell membranes
[4] = target: Alcohol dehydrogenase (Homo sapiens) (UniProt P07327+P08319+P00325+P00326+P40394+P11766+P28332); test: Binding affinity to alcohol dehydrogenase (unknown origin); format: protein assay

SMILES	log(1/C) [1]	log(1/C) [3]	log(1/K) [4]	other results
Nc1ccc(S(=O)(=O)Nc2ccc(Cl)cc2)cc1	4.8	–	–	–
Cc1cccc(Nc2ccccc2C(=O)O)c1C [MEFENAMIC ACID]	–	3.48	–	logP ([2]; read-out: logP): 0.28
CCOc1cccc(NS(=O)(=O)c2ccc(N)cc2)c1	4.88	–	–	–
NC(=O)c1ccc(F)cc1	–	–	-2.6	–
NC(=O)c1ccc([N+](=O)[O-])cc1	–	–	-2.6	–
O=C(O)c1cc(Cl)cc(Cl)c1O	–	3.48	–	logP [2]: 0.23

— ChEMBL document CHEMBL3272026, “On the structure of medicinal chemistry” (J Med Chem, 1976)
